Experimental data from patent publication EP1210336B1, “SUBSTITUTED BENZIMIDAZOLES AS NON-NUCLEOSIDE INHIBITORS OF REVERSE TRANSCRIPTASE” (THE UNITED STATES OF AMERICA, as represented by the …, priority 1999, dated 2001).
Where “and” joins values, the source holds several entries; their conditions need not be identical. Identical values can stand only once. Like-named read-outs stand apart in the source and are kept apart here.

Experiments:
[1] = test system: HIV-1 variant V108I; test: Cytopathic cell killing assay, cross-resistance profile, infected MT-4 cells; assay type: cell-based
From the text: (§1) The various HIV isolates tested in the Figures are those corresponding to wild-type virus (NL4-3) and the other strains listed by their RT mutations. The three 4xAZT isolates included in the Figures represent AZT drug-resistant variants. For example, the 4xAZT/L100I isolate has five mutations: four mutations confer increased resistance to AZT, and the other mutation is located within the NNRTI binding pocket. TZB and nevir. (nevirapine) are two well-known NNRTIs, included in this experiment for comparison purposes. […]
(§2) In this Example, the antiviral and cellular toxicity of NNRTIs was investigated, using the cytopathic cell killing assay described by Yang (Yang et al., "Characteristics of a Group of Non-nucleoside Reverse Transcriptase Inhibitors with Structural Diversity and Potent Anti-Human Immunodeficiency Virus Activity," Leukemia 9:S75-S85 [1995]). Briefly, in this method cells (e.g., the CEM-SS cell line, available from the NIAID AIDS Research and Reference Program [ARRRP]) were seeded at a density of 5 x 10^3 cells/well, into the wells of a 96-well microtiter plate. The cells were then infected with HIV virus (either mutant or WT), at a multiplicity of infection (MOI) previously determined to provide complete cell killing by 6 days of culture post-infection (e.g., MOI of 0.01-0.05). Each of the HIV isolates was pre-titered to induce equivalent levels of infection based on cell killing or virus production, prior to their use in these assays. A range of test compound concentrations was added to the wells in triplicate (e.g., serial half-log dilutions) to evaluate inhibition of HIV infection. Controls for each assay included drug controls (drug colorimetric control wells), drug cytotoxicity control wells (cells with drug), virus control wells (cells with virus), and cell viability controls (cells only). Positive control drugs (e.g., AZT and ddC) were also run in parallel.
(§3) After six days of incubation at 37°C, cell viability was determined spectrophotometrically at 450 nm for each well, using the metabolic reduction of XTT to a soluble colored formazan. (See, Gartner and Popovic, "Virus Isolation and Production, in Aldovini and Walker (eds.), Techniques in HIV Research, Stockton Press, NY, pp. […] [1991]; and Nara and Fischinger, "Quantitative Infectivity Assay for HIV-1 and HIV-2," Nature 332:469-470 [1988]).
(§4) The in vitro therapeutic index (TI50) was defined as the fold-difference between the EC50 and IC50. The results for the various compounds are included in Figures 8 and 19.

[2] = test system: HIV-1 variant K101E; test: as above; assay type: cell-based
From the text: as §1, §2, §3, §4

[3] = test system: HIV-1 variant V179D; test: as above; assay type: cell-based; conditions: isolate V179D
From the text: as §1, §2, §3, §4

[4] = test system: HIV-1 variant A98G; test: as above; assay type: cell-based
From the text: as §1, §2, §3, §4

[5] = test system: HIV-1 variant V106A; test: as above; assay type: cell-based
From the text: as §1, §2, §3, §4

[6] = test system: HIV-1 variant L100I; test: as above; assay type: cell-based
From the text: as §1, §2, §3, §4

[7] = test system: HIV-1 variant Y188C; test: as above; assay type: cell-based
From the text: as §1, §2, §3, §4

[8] = test system: HIV-1 variant K103N; test: as above; assay type: cell-based; conditions: for EC50: isolate K103N
From the text: as §1, §2, §3, §4

[9] = test system: HIV-1 variant Y181C; test: as above; assay type: cell-based; conditions: isolate Y181C
From the text: as §1, §2, §3, §4

[10] = test system: HIV-1 variant L74V; test: as above; assay type: cell-based
From the text: as §1, §2, §3, §4

[11] = test system: NL4-3 (WT); test: as above; assay type: cell-based, HIV-1
From the text: as §1, §2, §3, §4

[12] = test system: WT virus (NL4-3); test: microbe, parasite or virus in culture; assay type: cell-based, HIV-1; conditions: for EC50: read-out: EC50
Description: Evaluation of these compounds for the inhibition of HIV-1 was determined as the fifty percent cell culture inhibitory concentration (CIC50) in CEMSS cell culture with WT virus (NL4-3).
as §2, §3, §4

[13] = biological target: T1, HIV-1 WT RT (Human immunodeficiency virus type 1 group M subtype B, UniProt P03366); test: biochemical; conditions: for IC50: read-out: IC50; for %inhibn (1µM) / inhibition at 1 µM: WT HIV-1 RT, 1 µM drug
T1 construct: purified RT protein (0.015 mg/mL) was incubated in a 100 µL reaction mixture

[14] = test system: HIV-1 isolate 4xAZT/Y181C; test: Cytopathic cell killing assay, cross-resistance profile, infected MT-4 cells; assay type: cell-based; conditions: isolate 4XAZT /Y181C
From the text: as §1, §2, §3, §4

[15] = test system: HIV-1 isolate 4xAZT; test: as above; assay type: cell-based; conditions: isolate 4XAZT
From the text: as §1, §2, §3, §4

[16] = Table 10 (values in µM), isolate L1001, read-out: EC50
[17] = Table 10 (values in µM), read-out: EC50
[18] = Table 10 (values in µM), isolate NL4-3 (WT), read-out: EC50
[19] = Table 7, concentration reducing cell killing or virus production by 50%, HIV-1 WT
[20] = Table 11, CEMSS/NL4-3, NRVC = reduction in viral CPE not seen (footnote)
[21] = Human immunodeficiency virus 1, MT4, Table 9, isolate V1081
[22] = Human immunodeficiency virus 1, MT4, Table 9, isolate KIOIE
[23] = Human immunodeficiency virus 1, MT4, Table 9, isolate L1001
[24] = Human immunodeficiency virus 1, MT4, Table 9
[25] = Human immunodeficiency virus 1, NL43, MT4, Table 9, isolate NL4.3
[26] = Human immunodeficiency virus 1, MT4, Table 10 (values in µM)
[27] = Human immunodeficiency virus 1, NL43, CEM-SS, Table 11, CEMSS/NL4-3, NRVC = reduction in viral CPE not seen (footnote)
[28] = Human immunodeficiency virus 1, MT4, Table 8

## 1-(2,6-difluorobenzyl)-2-(2,6-difluorophenyl)-4-acetamidobenzimidazole [compound 56]
[1]; Table 8, isolate V1081, read-out: EC50
  EC50: 5.3 µM
[2]; Table 8, isolate K101E, read-out: EC50
  EC50: > 20 µM
[3]; Table 8, read-out: EC50
  EC50: > 10 µM
[4]; Table 8, isolate A9SG, read-out: EC50
  EC50: 4300 nM
[5]; Table 8, isolate V 106A, read-out: EC50
  EC50: > 20 µM
[6]; Table 8, isolate 1.1001, read-out: EC50
  EC50: 2.1 µM
[6]; [16]
  EC50: 3.25 µM
[7]; Table 8, isolate Y 188C, read-out: EC50
  EC50: > 10 µM
[8]; Table 8, read-out: EC50
  EC50: > 20 µM
[8]; [17]
  EC50: > 100 µM
[9]; [17]
  EC50: > 100 µM
[10]; Table 8, isolate 1.74V, read-out: EC50
  EC50: 1200 nM
[11]; Table 8, isolate N1.43, read-out: EC50
  EC50: 1.6 µM
[11]; [18]
  EC50: 1.97 µM
[12]; [19]
  EC50: 1480 nM
[12]; [20]
  EC50: 1480 nM
[13]; Table 7, HIV-1 WT RT
  IC50: 54.7 µM
[13]; Table 7
  %inhibn (1µM): 24%
[13]; Table 11, WT RT
  IC50: 54.7 µM

## CC(C)=CCn1c(-c2c(F)cccc2F)nc2c(C)cccc21 [(X= CH3) R = prenyl, 1-(3,3-dimethylallyl)-2-(2,6-difluorophenyl)-4-methylbenzimidazole]
[1]; [21]
  EC50: > 20 µM
[2]; [22]
  EC50: > 20 µM
[6]; [23]
  EC50: 0.3 µM
[8]; [24]
  EC50: > 20 µM
[9]; [24]
  EC50: > 20 µM
[11]; [25]
  EC50: 1.3 µM

## Cc1cccc2c1nc(C(C)C)n2Cc1c(F)cccc1F [compound 34, 1-(2,6-difluorobenzyl)-2-isopropyl-4-methylbenzimidazole]
[12]; Figures 10-12, result in words
  cytotoxicity and anti-viral effect (summary graph): effective therapeutic dose
[13]; Table 3, WT RT, 10 µM drug concentration, read-out: %inhibn (10 µM)
  inhibition at 10 µM: 53%

## Fc1cccc(F)c1Cn1c(-c2c(F)cccc2F)nc2c(Br)cccc21 [compound 54, 4-bromo-1-(2,6-difluorobenzyl)-2-(2,6-difluorophenyl)benzimidazole]
[1]; Human immunodeficiency virus 1, MT4, Table 10 (values in µM), isolate V108l
  EC50: 4.2 µM
[2]; Human immunodeficiency virus 1, MT4, Table 10 (values in µM), isolate K101E
  EC50: > 20 µM
[6]; Human immunodeficiency virus 1, MT4, Table 10 (values in µM), isolate L1001
  EC50: 0.5 µM
[7]; Human immunodeficiency virus 1, MT4, Table 10 (values in µM), isolate Y188C
  EC50: 3.7 µM
[8]; [26]
  EC50: > 20 µM
[9]; [26]
  EC50: 10.7 µM
[11]; Human immunodeficiency virus 1, NL43, MT4, Table 10 (values in µM), isolate NL4-3 (WT)
  EC50: 0.5 µM
[12]; Human immunodeficiency virus 1, NL43, CEM-SS, Table 7, concentration reducing cell killing or virus production by 50%, HIV-1 WT
  EC50: 370 nM
[12]; [27]
  EC50: 370 nM
[13]; Table 6, average of two experiments done in triplicates, read-out: %Inhibn (1µM)
  inhibition at 1 µM: 78%
[13]; Table 7, HIV-1 WT RT
  IC50: 1.61 µM
[13]; Table 7, read-out: %inhibn (1µM)
  inhibition at 1 µM: 78%
[13]; Table 11, WT RT
  IC50: 1.61 µM

## CN(C)c1cccc2c1nc(-c1c(F)cccc1F)n2Cc1c(F)cccc1F [compound 59, 1-(2,6-difluorobenzyl)-2-(2,6-difluorophenyl)-4-N,N dimethylaminobenzimidazole]
[6]; [16]
  EC50: 31.8 µM
[8]; [17]
  EC50: > 100 µM
[9]; [17]
  EC50: > 100 µM
[11]; [18]
  EC50: 2.88 µM
[12]; [19]
  EC50: 2370 nM
[12]; [20]
  EC50: 2370 nM
[13]; Table 7, HIV-1 WT RT
  IC50: 40 µM
[13]; Table 7
  %inhibn (1µM): 77%
[13]; Table 11, WT RT
  IC50: 40 µM

## CC(C)(O)c1cccc2c1nc(-c1c(F)cccc1F)n2Cc1c(F)cccc1F [compound 65, 1-(2,6-Difluorobenzyl)-2-(2,6-difluorophenyl)-4-benzimidazoyl-2-propanol]
[12]; [20]
  EC50: 634000 nM

## [N-]=[N+]=NCc1cccc2c1nc(-c1c(F)cccc1F)n2Cc1c(F)cccc1F [compound 70, 1-(2,6-difluorobenzyl)-2-(2,6-difluorophenyl)benzimidazol-4-yl-azidomethyl]
[1]; Table 10 (values in µM), isolate V108l, read-out: EC50
  EC50: 0.026 µM
[2]; Table 10 (values in µM), isolate K101E, read-out: EC50
  EC50: 0.6 µM
[7]; Table 10 (values in µM), isolate Y188C, read-out: EC50
  EC50: 0.22 µM
[8]; [17]
  EC50: 1.48 µM
[9]; [17]
  EC50: 0.82 µM
[11]; Table 10 (values in µM), isolate NL4-3 (WT), listed as CH2-N3, read-out: EC50
  EC50: 0.045 µM and 0.06 µM
[12]; [20]
  EC50: 45 nM

## CC(=O)NCc1cccc2c1nc(-c1c(F)cccc1F)n2Cc1c(F)cccc1F [compound 72]
[12]; [20]
  EC50 (µM): NRVC

## CC(=O)N(C)Cc1cccc2c1nc(-c1c(F)cccc1F)n2Cc1c(F)cccc1F [compound 73, 1-(2,6-Difluorobenzyl)-2-(2,6-difluorophenyl)-4-(N-acetyl-N-methyl)-aminomethylbenzimidazole]
[12]; [20]
  EC50: 580 nM

## Cc1ccnc2c1NC(=O)c1cccnc1N2C1CC1 [nevirapine, reference compound]
[1]; Human immunodeficiency virus 1, MT4, Table 8, isolate V1081
  EC50: 0.4 µM
[1]; [21]
  EC50: 0.4 µM
[14]; [28]
  EC50: 3000 nM
[14]; [24]
  EC50: 3000 nM
[2]; Human immunodeficiency virus 1, MT4, Table 8, isolate K101E
  EC50: 1.1 µM
[2]; [22]
  EC50: 1.1 µM
[3]; [28]
  EC50: 4.9 µM
[3]; [24]
  EC50: 0.2 µM
[4]; Human immunodeficiency virus 1, MT4, Table 8, isolate A9SG
  EC50: 800 nM
[4]; Human immunodeficiency virus 1, MT4, Table 9, isolate A98G
  EC50: 800 nM
[5]; Human immunodeficiency virus 1, MT4, Table 8, isolate V 106A
  EC50: > 10 µM
[5]; Human immunodeficiency virus 1, MT4, Table 9, isolate V106A
  EC50: > 10 µM
[15]; [28]
  EC50: > 500 nM
[15]; [24]
  EC50: > 500 nM
[6]; Human immunodeficiency virus 1, MT4, Table 8, isolate 1.1001
  EC50: 0.2 µM
[6]; [23]
  EC50: 0.2 µM
[7]; Human immunodeficiency virus 1, MT4, Table 8, isolate Y 188C
  EC50: > 0.5 µM
[7]; Human immunodeficiency virus 1, MT4, Table 9, isolate Y188C
  EC50: > 0.5 µM
[8]; [28]
  EC50: > 10 µM
[8]; [24]
  EC50: > 10 µM
[8]; result in words, cytopathic cell killing assay
  activity against the K103N mutation / isolate: ineffective
[9]; [24]
  EC50: 4.9 µM
[10]; Human immunodeficiency virus 1, MT4, Table 8, isolate 1.74V
  EC50: 40 nM
[10]; Human immunodeficiency virus 1, MT4, Table 9, isolate 1.74 V
  EC50: 40 nM
[11]; Human immunodeficiency virus 1, NL43, MT4, Table 8, isolate N1.43
  EC50: 0.04 µM
[11]; [25]
  EC50: 0.04 µM
[12]; [27]
  EC50: 35 nM
